Assay results from article PMC10812665, “Definition of the Neurotoxicity-Associated Metabolic Signature Triggered by Berberine and Other Respiratory Chain Inhibitors” (Antioxidants, 2023).

Biological target: T1, purified pig brain tubulin (Sus scrofa, UniProt P02550+P02554)
T1 construct: native alpha/beta-tubulin purified from pig brain
Test: tubulin polymerization, absorbance […] nm
Assay type: biochemical

T1 sequence (P02554 whole entry): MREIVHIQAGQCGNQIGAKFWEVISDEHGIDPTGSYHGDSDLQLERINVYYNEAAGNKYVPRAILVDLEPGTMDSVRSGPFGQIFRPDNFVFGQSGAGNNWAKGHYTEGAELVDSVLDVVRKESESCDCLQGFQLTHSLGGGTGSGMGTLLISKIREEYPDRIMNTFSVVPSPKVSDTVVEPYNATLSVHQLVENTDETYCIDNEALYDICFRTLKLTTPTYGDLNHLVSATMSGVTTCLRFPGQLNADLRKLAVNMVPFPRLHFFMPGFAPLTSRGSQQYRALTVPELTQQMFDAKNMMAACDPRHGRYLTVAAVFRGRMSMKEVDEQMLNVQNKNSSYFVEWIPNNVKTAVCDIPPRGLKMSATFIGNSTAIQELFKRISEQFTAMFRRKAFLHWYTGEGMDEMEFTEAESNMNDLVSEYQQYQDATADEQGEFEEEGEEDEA
T1 sequence (P02550 whole entry): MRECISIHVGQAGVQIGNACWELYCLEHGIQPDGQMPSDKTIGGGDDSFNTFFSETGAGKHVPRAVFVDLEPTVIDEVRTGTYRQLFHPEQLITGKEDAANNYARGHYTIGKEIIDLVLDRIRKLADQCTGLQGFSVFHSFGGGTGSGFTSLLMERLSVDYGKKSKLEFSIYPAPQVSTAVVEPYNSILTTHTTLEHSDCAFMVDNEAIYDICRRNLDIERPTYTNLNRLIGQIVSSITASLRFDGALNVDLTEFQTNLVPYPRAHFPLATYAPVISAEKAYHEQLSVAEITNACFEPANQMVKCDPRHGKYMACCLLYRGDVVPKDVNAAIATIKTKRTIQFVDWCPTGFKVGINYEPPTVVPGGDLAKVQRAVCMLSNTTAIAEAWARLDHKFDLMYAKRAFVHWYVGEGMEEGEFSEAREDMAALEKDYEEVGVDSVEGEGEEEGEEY

C=C(C)[C@H]1Cc2c(ccc3c2O[C@@H]2COc4cc(OC)c(OC)cc4[C@@H]2C3=O)O1 [Rot, rotenone]
EC50: 640 nM
